The values that follow come from patent publication US20250275541A1, “NEMATOSTATIC COMPOSITIONS, AND USE THEREOF IN AGRICULTURE” (AGRO INNOVATION INTERNATIONAL, priority 2019, published 2025).

The test system of assay [1] is Meloidogyne javanica. In words: Mobility of Meloidogyne javanica in the soil microcosm (Example 1). The method, then:
The nematodes will be distributed randomly in the layer of soil, depending on their mobility. After adding the test products and incubating for 6 h, the column of soil and the sieve were placed in a tube containing water. The mobile nematodes pass through the column of soil and migrate naturally into the water. The nematodes passing into the water can be counted. If the concentration of test product considered is inhibitory for the mobility of the nematodes in the presence of soil, the nematodes are kept in the column of soil and delayed in their migration into the water. The time for emergence of the nematodes from the column of soil is longer as the concentration of nematostatic product increases.

Assay [2] relates to Meloidogyne javanica. As to the kind of experiment: Mobility of Meloidogyne javanica in the soil microcosm, different carboxylic acids (Example 3). As to conditions: Fluopyram 24 ppm (positive control), 5 h incubation. The method, then:
Juvenile nematodes of M. javanica were deposited on the surface of a column of sterile soil 2 cm thick resting on a sieve (cotton wool), 1 hour before adding the test products in order to allow them time to move in the porosity of the soil. The nematodes will be distributed randomly in the layer of soil, depending on their mobility. […] The mobile nematodes pass through the column of soil and migrate naturally into the water. The nematodes passing into the water can be counted.
If the concentration of test product considered is inhibitory for the mobility of the nematodes in the presence of soil, the nematodes are kept in the column of soil and delayed in their migration into the water. The time for emergence of the nematodes from the column of soil is longer as the concentration of nematostatic product increases.
The method is identical to that described in Example 1. […]

Where [3] appears, read: calcium formate 780 ppm alone, or with RD2 100 or 1000 ppm, 6 h incubation, kinetics over 144 h.

As for `O=C[O-].O=C[O-].[Ca+2]` [calcium formate], the “nematodes that left the microcosm at 3 days” value in the assay with Meloidogyne javanica [1] (at 3 days, calcium formate 780 ppm alone, or calcium formate 780 ppm + RD2 1000 ppm) came to 92%. For the same compound, in the assay on Meloidogyne javanica [1] (setting [3]), the “nematodes affected reversibly in their mobility” value is recorded as 62% and the “nematodes not affected in their mobility” value is recorded as 14%. Besides, in the assay on Meloidogyne javanica [1] (calcium formate 780 ppm alone, or with RD2 100 or 1000 ppm, at 6 days), the “nematodes affected irreversibly at 6 days” value was 24%.
`O=C(NCCc1ncc(C(F)(F)F)cc1Cl)c1ccccc1C(F)(F)F` [Fluopyram]: in the assay with Meloidogyne javanica [2], the “nematodes that had left the microcosm of the soil after 160 hours” value is “no nematode had left the microcosm”.
